# Test results reported in paper PMC5071873, “The Effects of Puerarin on Rat Ventricular Myocytes and the Potential Mechanism” (Scientific Reports, 2016).
# Read-outs that look alike come from different tables or passages of the source.
# Tests used:
# Format in all cases: cell-based
# [1] = target: T1, IKs channels (KCNQ and KCNE) (Homo sapiens, UniProt P51787); assay: Whole-cell patch clamp of IKs currents (Kv7.1 + KCNE1, voltage steps) in transfected HEK293 cells; conditions: for IC50: HEK293, non-linear Hill fit, n = 6 each point; for IKs-tail current density / IKs current density: at 40 mV; for IKs-tail current density: control 23.5 ± 1.2; for IKs current density: control 33.8 ± 3.2
# T1 construct: expressed in transfected cells; host or cells: HEK293
# Description: (§1) The Tyrode’s solution contained (mM): 126 NaCl, 5.4 KCl, 1.8 CaCl2, 1 MgCl2, 0.33 NaH2PO4, 10 HEPES and 10 glucose, pH 7.4 (adjusted with NaOH). The Ca^2+-free Tyrode’s solution was prepared by removing CaCl2 from the Tyrode’s solution. The Kreb’s solution used for cell storage contained (mM): 70 glutamic acid, 30 KCl, 15 taurine, 0.5 MgCl2, 10 KH2PO4, 0.5 EGTA, 10 HEPES, 10 glucose, and 1% albumin, pH 7.4 (adjusted with KOH). The enzyme solution used for the rat cardiomyocyte isolation contained 0.08 g/L collagenase (type II) and 1.0 g/L BSA in Kreb’s solution. For action potential recording on cardiomyocyte, the pipette solution contained (mM): 100 potassium aspartate, 30 KCl, 1 MgCl2, 5 Mg-ATP, 5 EGTA, 5 HEPES, pH 7.3 (adjusted with KOH); the Tyrode’s solution was used as the standard bath solution. For whole-cell recording of IKs on myocytes, the pipette solution contained (mM): 125 potassium aspartate, 20 KCl, 1 MgCl2, 5 Mg-ATP, 10 EGTA, 5 HEPES, pH 7.3 (adjusted with KOH); the bath solution contained (mM): 132 NaCl, 4 KCl, 1.8 CaCl2, 1.2 MgCl2, 10 HEPES, 5 glucose, pH 7.4 (adjusted with NaOH). 3 μM nifedipine and 5 μM E-4031 were used to block the calcium current and IKr, respectively. For whole-cell recording on HEK-293 cells, the pipette solution contained (mM): 140 KCl, 2 MgCl2, 10 HEPES, 0.1 EGTA, 4 K2-ATP, pH 7.3 (adjusted with KOH); the bath solution contained (mM): 120 NaCl, 5 KCl, 1.5 CaCl2, 1 MgCl2, 10 HEPES, 10 glucose, pH 7.4 (adjusted with NaOH). For single-channel recording, the pipette solution (extracellular) contained (mM): 145 KCl, 10 HEPES, 10 glucose, pH 7.4 (adjusted with KOH); the bath solution (intracellular) contained (mM): 145 KCl, 1.2 MgCl2, 10 HEPES, 0.1 EGTA, pH 7.38 (adjusted with KOH).
# Cell suspensions were transferred into a chamber on the stage of a Nikon Eclipse Ti inverted microscope (Tokyo, Japan). The whole-cell recordings were performed using isolated single ventricular myocytes. Patch electrodes were pulled from a horizontal microelectrode puller (P-1000, Sutter Instrument Co, USA) and fire polished to final tip resistance of 4.0–8.0 MΩ when filled with internal solutions. Signals were amplified with an Axopatch 200B amplifier (Axon Instruments, USA) and filtered at 1 kHz. The pCLAMP 9.0 software was used to generate current and voltage clamp protocols, acquire data, and analyse the current traces. The whole-cell series resistance was compensated to more than 80%. All of the experiments were performed at room temperature (22 ± 1 °C). The whole-cell IK1 was elicited by a ramp voltage protocol from −140 to + 40 mV in 1 s, or at a 0 mV holding potential to test potentials from −140 to + 40 mV in 10 mV increments. The IK1 was calculated as the difference between the peak inward current and the holding current level. The whole-cell Kv7.1/IKs were elicited from a −30 mV holding potential to test potentials from −80 to + 40 mV in 10 mV increments.
# Human Kir2.1 cDNA, Kir2.3 cDNA, Kv7.1 cDNA and KCNE1 cDNA, was cloned in Human Embryonic Kidney 293 cells, respectively. In some cases, Kv7.1 cDNA and KCNE1 cDNA were simultaneously cloned in Human Embryonic Kidney 293 cells.
# [2] = target: T2, IKs (Rattus norvegicus, UniProt Q9Z0N7); assay: Whole-cell recording of IKs on rat ventricular myocytes; conditions: puerarin 100 μM
# T2 construct: endogenous in cells; host or cells: isolated adult rat ventricular myocytes
# Description: as §1, with “3 μM nifedipine and 5 μM E-4031 were used to block the calcium current and IKr, respectively. For whole-cell recording on HEK-293 cells, the pipette solution contained (mM): 140 KCl, 2 MgCl2, 10 HEPES, 0.1 EGTA, 4 K2-ATP, pH 7.3 (adjusted with KOH); the bath solution contained (mM): 120 NaCl, 5 KCl, 1.5 CaCl2, 1 MgCl2, 10 HEPES, 10 glucose, pH 7.4 (adjusted with NaOH). For single-channel recording, the pipette solution (extracellular) contained (mM): 145 KCl, 10 HEPES, 10 glucose, pH 7.4 (adjusted with KOH); the bath solution (intracellular) contained (mM): 145 KCl, 1.2 MgCl2, 10 HEPES, 0.1 EGTA, pH 7.38 (adjusted with KOH).” left out
# Cell suspensions were transferred into a chamber on the stage of a Nikon Eclipse Ti inverted microscope (Tokyo, Japan). […] The IK1 was calculated as the difference between the peak inward current and the holding current level. […]
# [3] = target: T3, IKs channel (Homo sapiens, UniProt P51787); assay: Single-channel inside-out patch clamp recording of IKs; conditions: puerarin 100 μM, inside-out, intracellular side
# T3 construct: expressed in transfected cells; host or cells: HEK293
# Description: as §1, with “3 μM nifedipine and 5 μM E-4031 were used to block the calcium current and IKr, respectively. For whole-cell recording on HEK-293 cells, the pipette solution contained (mM): 140 KCl, 2 MgCl2, 10 HEPES, 0.1 EGTA, 4 K2-ATP, pH 7.3 (adjusted with KOH); the bath solution contained (mM): 120 NaCl, 5 KCl, 1.5 CaCl2, 1 MgCl2, 10 HEPES, 10 glucose, pH 7.4 (adjusted with NaOH). For single-channel recording, the pipette solution (extracellular) contained (mM): 145 KCl, 10 HEPES, 10 glucose, pH 7.4 (adjusted with KOH); the bath solution (intracellular) contained (mM): 145 KCl, 1.2 MgCl2, 10 HEPES, 0.1 EGTA, pH 7.38 (adjusted with KOH).” left out
# Single-channel activity was recorded at a series of holding levels ranging from 10 mV of 50 mV. […] Single-channel events were listed and analysed by pclampfit 9.0 (single-channel search-in-analyse function). […]
structure (smiles),measurement,setting,value
"O=c1c(-c2ccc(O)cc2)coc2c([C@@H]3O[C@H](CO)[C@@H](O)[C@H](O)[C@H]3O)c(O)ccc12 [Puerarin, 8-c-glucoside of daidzein]",IC50,"[1]; read-out: IC50, inhibition of IKs at the peak currents",55.6 µM
same,IC50,"[1]; read-out: IC50, inhibition of IKs at the tail currents",59.8 µM
same,"Hill coefficient, inhibition of IKs",[1]; non-linear Hill fit,0.989
same,IKs-tail current density,[1]; puerarin 10 μM,17.8 ± 1.5 pA/pF
same,IKs current density,[1]; puerarin 10 μM,25.6 ± 2.4 pA/pF
same,IKs-tail current density,[1]; puerarin 100 μM,9.7 ± 1.1 pA/pF
same,IKs current density,[1]; puerarin 100 μM,15.7 ± 1.9 pA/pF
same,IKs-tail current density,[1]; puerarin 1 mM,6.4 ± 1.2 pA/pF
same,IKs current density,[1]; puerarin 1 mM,6.0 ± 1.3 pA/pF
same,IKs-tail current density,[1]; puerarin 10 mM,5.2 ± 1.3 pA/pF
same,IKs current density,[1]; puerarin 10 mM,5.4 ± 1.7 pA/pF
same,effect on forskolin-activated IKs current in rat cardiac myocytes,[2],antagonized such activation effect
same,open probability of IKs channel,[3],reduced
